Results: patent US20100168179A1, “6-ALKENYL-, 6-ALKINYL- AND 6-EPOXY-EPOTHILONE DERIVATIVES, PROCESS FOR THEIR PRODUCTION, AND THEIR USE IN PHARMACEUTICAL PREPARATIONS” (priority 1999, published 2010)

Columns and labels:
NCl/ADR = test: growth inhibition of multi-drug-resistant NCl/ADR carcinoma cell line, crystal-violet assay; assay type: cell-based, human; conditions: for IC50: crystal-violet assay, multi-drug-resistant line; for Selectivity = IC50-(NCl/ADR): IC50 (MCF-7): Table 1, ratio NCl/ADR to MCF-7
Text: (§1) In Vitro Activity of Epothilone Derivatives on Human Tumor Cell Lines
(§2) a) IC50 values [nM] for the growth inhibition of human MCF-7-breast and multi-drug-resistant NCl/ADR-carcinoma cell lines of epothilone derivatives with 13Z-unsaturated in the crystal-violet assay in comparison to Taxol.
(§3) b) IC50 values [nM] for the growth inhibition of human MCF-7-breast- and multi-drug-resistant NCl/ADR carcinoma cell lines of epothilone derivative with 13,14-α-epoxide, which was formed from the 13-Z-configured double bond in the crystal-violet assay in comparison to Taxol.
(§4) c) IC50 values [nM] for the growth inhibition of human MCF-7-breast- and multi-drug-resistant NCl/ADR-carcinoma cell lines of epothilone derivatives with 13,14-epoxide, which was formed from the 13-E-configured double bond, in a crystal-violet assay in comparison to Taxol.

MCF-7 = test: growth inhibition of human MCF-7 breast carcinoma cell line, crystal-violet assay; assay type: cell-based
Text: as §1, §2, §3, §4

[1] = Table 3, 13,14-epoxide formed from the 13-E-configured double bond
[2] = Table 3, ratio NCl/ADR to MCF-7
[3] = Table 1, epothilone derivatives with 13Z-unsaturated
[4] = Table 2, 13,14-α-epoxide formed from the 13-Z-configured double bond
[5] = Table 2, ratio NCl/ADR to MCF-7

C#CCC[C@H]1C(=O)C(C)(C)[C@@H](O)CC(=O)O[C@H](/C(C)=C/c2ccccn2)C[C@@H]2OC2(C)CCC[C@H](C)[C@@H]1O (single isomer, unassigned) [Example 6A or B]
IC50 (NCl/ADR; [1]): 0.068 µM
Selectivity = IC50-(NCl/ADR): IC50-(MCF-7) (NCl/ADR; [2]): 15.8
IC50 (MCF-7; [1]): 0.0043 µM

C=CC[C@H]1C(=O)C(C)(C)[C@@H](O)CC(=O)O[C@H](/C(C)=C/c2csc(C)n2)CC2O[C@@]2(C)CCC[C@H](C)[C@@H]1O (single isomer, unassigned) [Example 12B or A]
IC50 (NCl/ADR; [1]): 0.053 µM
Selectivity = IC50-(NCl/ADR): IC50-(MCF-7) (NCl/ADR; [2]): 11.0
IC50 (MCF-7; [1]): 0.0048 µM

C#CCC[C@H]1C(=O)C(C)(C)[C@@H](O)CC(=O)O[C@H](/C(C)=C/c2ccccn2)C/C=C(/C)CCC[C@H](C)[C@@H]1O [Example 1, (4S,7R,8S,9S,13Z,16S(E))-4,8-Dihydroxy-16-(1-methyl-2-(2-pyridyl)ethenyl)-1-oxa-5,5,9,13-tetramethyl-7-(but-3-in-1-yl)-cyclohexadec-13-ene-2,6-dione]
IC50 (NCl/ADR; [3]): 0.075 µM
Selectivity = IC50-(NCl/ADR): IC50 (MCF-7) (NCl/ADR): 2.5
IC50 (MCF-7; [3]): 0.03 µM

C=CCC[C@H]1C(=O)C(C)(C)[C@@H](O)CC(=O)O[C@H](/C(C)=C/c2ccccn2)C/C=C(/C)CCC[C@H](C)[C@@H]1O [Example 2, (4S,7R,8S,9S,13Z,16S(E))-4,8-Dihydroxy-16-(1-methyl-2-(2-pyridyl)ethenyl)-1-oxa-5,5,9,13-tetramethyl-7-(but-3-en-1-yl)-cyclohexadec-13-ene-2,6-dione]
IC50 (NCl/ADR; [3]): 0.07 µM
Selectivity = IC50-(NCl/ADR): IC50 (MCF-7) (NCl/ADR): 2.8
IC50 (MCF-7; [3]): 0.025 µM

C#CCC[C@H]1C(=O)C(C)(C)[C@@H](O)CC(=O)O[C@H](/C(C)=C/c2ccccn2)C[C@@H]2O[C@]2(C)CCC[C@H](C)[C@@H]1O [Example 4A, (1S,3S(E),7S,10R,11S,12S,16R)-7,11-Dihydroxy-10-(but-3-in-1-yl)-3-(1-methyl-2-(2-pyridyl)ethenyl)-8,8,12,16-tetramethyl-4,17-dioxabicyclo[14.1.0]heptadecane-5,9-dione]
IC50 (NCl/ADR; [4]): 0.0091 µM
Selectivity = IC50-(NCl/ADR): IC50-(MCF-7) (NCl/ADR; [5]): 7.0
IC50 (MCF-7; [4]): 0.0013 µM

C=CCC[C@H]1C(=O)C(C)(C)[C@@H](O)CC(=O)O[C@H](/C(C)=C/c2ccccn2)C[C@@H]2O[C@]2(C)CCC[C@H](C)[C@@H]1O [Example 5A, (1S,3S(E),7S,10R,11S,12S,16R)-7,11-Dihydroxy-10-(but-3-en-1-yl)-3-(1-methyl-2-(2-pyridyl)ethenyl)-8,8,12,16-tetramethyl-4,17-dioxabicyclo[14.1.0]heptadecane-5,9-dione]
IC50 (NCl/ADR; [4]): 0.0038 µM
Selectivity = IC50-(NCl/ADR): IC50-(MCF-7) (NCl/ADR; [5]): 1.2
IC50 (MCF-7; [4]): 0.0031 µM

C=CC[C@H]1C(=O)C(C)(C)[C@@H](O)CC(=O)O[C@H](/C(C)=C/c2csc(C)n2)C/C=C(/C)CCC[C@H](C)[C@@H]1O [Example 9, (4S,7R,8S,9S,13Z,16S(E))-4,8-Dihydroxy-16-(1-methyl-2-(2-methylthiazol-4-yl)ethenyl)-1-oxa-5,5,9,13-tetramethyl-7-(prop-2-en-1-yl)-cyclohexadec-13-ene-2,6-dione]
IC50 (NCl/ADR; [3]): 0.041 µM
Selectivity = IC50-(NCl/ADR): IC50 (MCF-7) (NCl/ADR): 2.4
IC50 (MCF-7; [3]): 0.017 µM

C=CC[C@H]1C(=O)C(C)(C)[C@@H](O)CC(=O)O[C@H](/C(C)=C/c2csc(C)n2)C[C@@H]2O[C@]2(C)CCC[C@H](C)[C@@H]1O [Example 10A, (1S,3S(E),7S,10R,11S,12S,16R)-7,11-Dihydroxy-10-(prop-2-en-1-yl)-3-(1-methyl-2-(2-methylthiazol-4-yl)ethenyl)-8,8,12,16-tetramethyl-4,17-dioxabicyclo[14.1.0]heptadecane-5,9-dione]
IC50 (NCl/ADR; [4]): 0.0036 µM
Selectivity = IC50-(NCl/ADR): IC50-(MCF-7) (NCl/ADR; [5]): 3.0
IC50 (MCF-7; [4]): 0.0012 µM

C=CC[C@H]1C(=O)C(C)(C)[C@@H](O)CC(=O)O[C@H](/C(C)=C/c2csc(C)n2)C[C@H]2O[C@]2(C)CCC[C@H](C)[C@@H]1O [Example 12A or B, (1R,3S(E),7S,10R,11S,12S,16R)-7,11-Dihydroxy-10-(prop-2-en-1-yl)-3-(1-methyl-2-(2-methylthiazol-4-yl)ethenyl)-8,8,12,16-tetramethyl-4,17-dioxabicyclo[14.1.0]heptadecane-5,9-dione]
IC50 (NCl/ADR; [1]): 0.061 µM
Selectivity = IC50-(NCl/ADR): IC50-(MCF-7) (NCl/ADR; [2]): 1.5
IC50 (MCF-7; [1]): 0.04 µM

C#CC[C@H]1C(=O)C(C)(C)[C@@H](O)CC(=O)O[C@H](/C(C)=C/c2ccccn2)C/C=C(/C)CCC[C@H](C)[C@@H]1O [Example 13, (4S,7R,8S,9S,13Z,16S(E))-4,8-Dihydroxy-16-(1-methyl-2-(2-pyridyl)ethenyl)-1-oxa-5,5,9,13-tetramethyl-7-(prop-2-in-1-yl)-cyclohexadec-13-ene-2,6-dione]
IC50 (MCF-7; [3]): 0.034 µM

C=CC[C@H]1C(=O)C(C)(C)[C@@H](O)CC(=O)O[C@H](/C(C)=C/c2ccccn2)C/C=C(/C)CCC[C@H](C)[C@@H]1O [Example 15, (4S,7R,8S,9S,13Z,16S(E))-4,8-Dihydroxy-16-(1-methyl-2-(2-pyridyl)ethenyl)-1-oxa-5,5,9,13-tetramethyl-7-(prop-2-en-1-yl)-cyclohexadec-13-ene-2,6-dione]
IC50 (MCF-7; [3]): 0.025 µM

C=CC[C@H]1C(=O)C(C)(C)[C@@H](O)CC(=O)O[C@H](c2ccc3oc(C)nc3c2)C/C=C(/C)CCC[C@H](C)[C@@H]1O [Example 21, (4S,7R,8S,9S,13Z,16S(E))-4,8-Dihydroxy-16-(2-methyl-benzoxazol-5-yl)-1-oxa-5,5,9,13-tetramethyl-7-(prop-2-en-1-yl)-cyclohexadec-13-ene-2,6-dione]
IC50 (MCF-7; [3]): 0.032 µM

C#CC[C@H]1C(=O)C(C)(C)[C@@H](O)CC(=O)O[C@H](/C(F)=C/c2csc(C)n2)C/C=C(/C)CCC[C@H](C)[C@@H]1O [Example 23, (4S,7R,8S,9S,13Z,16S(Z))-4,8-Dihydroxy-16-(1-fluoro-2-(2-methylthiazol-4-yl)ethenyl)-7-(prop-2-in-1-yl)-1-oxa-5,5,9,13-tetramethyl-cyclohexadec-13-ene-2,6-dione]
IC50 (NCl/ADR; [3]): 0.062 µM
Selectivity = IC50-(NCl/ADR): IC50 (MCF-7) (NCl/ADR): 5.6
IC50 (MCF-7; [3]): 0.011 µM

C#CC[C@H]1C(=O)C(C)(C)[C@@H](O)CC(=O)O[C@H](/C(F)=C/c2csc(C)n2)C[C@@H]2O[C@]2(C)CCC[C@H](C)[C@@H]1O [Example 25, (1S,3S(Z),7S,10R,11S,12S,16R)-7,11-Dihydroxy-3-(1-fluoro-2-(2-methyl-4-thiazolyl)ethenyl)-10-(prop-2-in-1-yl)-8,8,12,16-tetramethyl-4,17-dioxabicyclo[14.1.0]heptadecane-5,9-dione]
IC50 (NCl/ADR; [4]): 0.011 µM
Selectivity = IC50-(NCl/ADR): IC50-(MCF-7) (NCl/ADR; [5]): 4.8
IC50 (MCF-7; [4]): 0.0023 µM

C#CC[C@H]1C(=O)C(C)(C)[C@@H](O)CC(=O)O[C@H](/C(F)=C/c2csc(C)n2)C[C@@H]2O[C@@]2(C)CCC[C@H](C)[C@@H]1O [Example 26A or B, (1S,3S(Z),7S,10R,11S,12S,16S)-7,11-Dihydroxy-3-(1-fluoro-2-(2-methyl-4-thiazolyl)ethenyl)-10-(prop-2-in-1-yl)-8,8,12,16-tetramethyl-4,17-dioxabicyclo[14.1.0]heptadecane-5,9-dione]
IC50 (NCl/ADR; [1]): 0.06 µM
Selectivity = IC50-(NCl/ADR): IC50-(MCF-7) (NCl/ADR; [2]): 3.3
IC50 (MCF-7; [1]): 0.018 µM

C#CC[C@H]1C(=O)C(C)(C)[C@@H](O)CC(=O)O[C@H](/C(F)=C/c2coc(C)n2)C/C=C(/C)CCC[C@H](C)[C@@H]1O [Example 27, (4S,7R,8S,9S,13Z,16S(Z))-4,8-Dihydroxy-16-(1-fluoro-2-(2-methyloxazol-4-yl)ethenyl)-7-(prop-2-in-1-yl)-1-oxa-5,5,9,13-tetramethyl-cyclohexadec-13-ene-2,6-dione]
IC50 (NCl/ADR; [3]): 0.041 µM
Selectivity = IC50-(NCl/ADR): IC50 (MCF-7) (NCl/ADR): 1.6
IC50 (MCF-7; [3]): 0.025 µM

CC(=O)O[C@H]1C(=O)[C@@]2(C)[C@H]([C@H](OC(=O)c3ccccc3)[C@]3(O)C[C@H](OC(=O)[C@H](O)[C@@H](NC(=O)c4ccccc4)c4ccccc4)C(C)=C1C3(C)C)[C@]1(OC(C)=O)CO[C@@H]1C[C@@H]2O [Taxol, reference compound]
IC50 (NCl/ADR; Homo sapiens, Table 1, epothilone derivatives with 13Z-unsaturated): > 0.1 µM
Selectivity = IC50-(NCl/ADR): IC50 (MCF-7) (NCl/ADR): >28.6
IC50 (NCl/ADR; [4]): > 0.1 µM
Selectivity = IC50-(NCl/ADR): IC50-(MCF-7) (NCl/ADR; [5]): >29
IC50 (NCl/ADR; [1]): > 0.1 µM
Selectivity = IC50-(NCl/ADR): IC50-(MCF-7) (NCl/ADR; [2]): >29
action on the multi-drug-resistant cell line NCl/ADR (NCl/ADR; in words, in comparison to Taxol): not exhibited
IC50 (MCF-7; Homo sapiens, MCF7, Table 1, epothilone derivatives with 13Z-unsaturated): 0.0035 µM
